Measured values reported in patent US20230285405A1, “Pharmaceuticals for Treating or Preventing Nidoviruses and Picornaviruses” (priority 2020, published 2023).
Read-outs that look alike come from different tables or passages of the source.

Key:
[1] = tested on: A549-mRuby cells; assay: Drug screening: effect on cell growth (cell number day 4 / day 0); details: 10 μM drug; for Growth_1: number of cells at day 4 divided by number of cells at day 0 / toxic_1: repeat #1; for Growth_2: number of cells at day 4 divided by number of cells at day 0 / toxic_2: repeat #2
Procedure, shortened: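 Growth was scored as day 4/day 0 cell count from images of OC43-infected (MOI 0.3) A549-mRuby nuclear-reporter cells. Compounds were added at 10 μM final after a 1 h infection at 33° C, followed by 4 days of culture at 33° C in two independent screens.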

[2] = tested on: OC43; assay: Dose-response analysis of OC43 infection; assay type: cell-based, human beta coronavirus OC43
Protocol: Dose-response analysis of OC43 infection was done similarly to the drug screening, except cells were seeded at a concentration of 5,000 cells per well and the media contained 2% BCS instead of 10% BCS. OC43 staining was performed 2 days after infection and analyzed similarly to what was described for the drug screening. A sigmoid fit was used to extract EC50 values using Matlab.

[3] = tested on: SARS-CoV-2; assay: microbe, parasite or virus in culture; assay type: cell-based, SARS-CoV-2 (nCoV/Washington/1/2020)
[4] = tested on: OC43; assay: Drug screening: OC43 nucleoprotein staining in infected A549-mRuby cells; assay type: cell-based, human beta coronavirus OC43; details: for activity at 10 µM: Betacoronavirus 1, OC43, 96 h
Procedure, shortened: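 Repurposing screen: drugs at 10 μM final added 1 h after OC43 infection (MOI 0.3) of H2B-mRuby A549 cells, 4-day incubation at 33° C. Cell counts imaged at day 0 and day 4; nucleoprotein staining per cell normalized to untreated infected wells, hit threshold >3 SD in duplicate screens, non-toxic.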

[5] = target: T1, SARS-CoV-2 3CLpro (Severe acute respiratory syndrome coronavirus 2, UniProt P0DTD1); assay type: cell-based
T1 construct: the SARS-CoV-2 main protease (also known as 3CLpro, Mpro and nsp5); expressed in transfected cells; host or cells: 293T cells

[6] = A549-mRuby cells, staining 2 days after infection, read-out: EC50 OC43
[7] = 10 μM drug, MOI 0.3, 4 days, OC43 staining normalized to no-drug controls, mean of the two screen repeats
[8] = 10 μM drug, MOI 0.3, 4 days, normalized to no-drug controls in the same plate, repeat #1
[9] = 10 μM drug, MOI 0.3, 4 days, normalized to no-drug controls in the same plate, repeat #2
[10] = Betacoronavirus 1, OC43, 48 h, read-out: EC50 OC43, A549-mRuby cells, staining 2 days after infection
[11] = Severe acute respiratory syndrome coronavirus 2; read-out: EC50 SARS2
[12] = 10 μM drug, MOI 0.3, 4 days, OC43 staining normalized to no-drug controls, mean of the two screen repeats, read-out: OC43_mean
[13] = 10 μM drug, MOI 0.3, 4 days, normalized to no-drug controls in the same plate, repeat #1, read-out: OC43_1: % staining of OC43 in screen repeat #1
[14] = 10 μM drug, MOI 0.3, 4 days, normalized to no-drug controls in the same plate, repeat #2, read-out: OC43_2: % staining of OC43 in screen repeat #2
[15] = Severe acute respiratory syndrome coronavirus 2, read-out: EC50 SARS2

Compound | Growth_1: number of cells at day 4 divided by number of cells at day 0 [1] | toxic_1 [1] | Growth_2: number of cells at day 4 divided by number of cells at day 0 [1] | toxic_2 [1] | hit_1 ([4]; 10 μM drug, repeat #1) | hit_2 ([4]; 10 μM drug, repeat #2) | EC50 [2, 10] [µM] | EC50 [3, 11] [µM] | activity at 10 µM [4, 12] [%] | activity at 10 µM [4, 13] [%] | activity at 10 µM [4, 14] [%] | also measured
Velpatasvir | 6.2 | 0 | 5.6 | 0 | 1 | 1 | – | – | – | – | – | EC50 [2, 6]: 2 µM; EC50 ([3]; read-out: EC50 SARS2): > 10 µM; OC43_mean [4, 7]: 18.0%; OC43_1: % staining of OC43 in screen repeat #1 [4, 8]: 26.0%; OC43_2: % staining of OC43 in screen repeat #2 [4, 9]: 10.0%
CCCNCC(O)COc1ccccc1C(=O)CCc1ccccc1.O (stereo not drawn) [Propafenone HCl] | 4.7 | – | 3.4 | – | 1 | 1 | 7.3 | 3.7 | 19.8 | 20.4 | 19.2 | –
N#Cc1ccc2[nH]cc(CCCCN3CCN(c4ccc5oc(C(N)=O)cc5c4)CC3)c2c1.O [Vilazodone HCl] | 3.5 | 0 | 3.9 | 0 | 1 | 1 | 3.6 | 4.5 | 9.8 | 13 | 6.7 | 3CLpro activity: percentage of GFP-expressing cells (in words) [5]: statistically significant decrease
COc1ccc2cc1Oc1ccc(cc1)C[C@H]1c3c(cc4c(c3Oc3cc5c(cc3OC)CCN(C)[C@@H]5C2)OCO4)CCN1C [Cepharanthine] | 4.3 | 0 | 4.7 | 0 | 1 | 1 | 0.77 | 0.13 | 20.3 | 28.5 | 12.1 | –
CN1CCCC(n2nc(Cc3ccc(Cl)cc3)c3ccccc3c2=O)CC1.O (stereo not drawn) [Azelastine HCl] | 4.1 | 0 | 3.2 | 0 | 1 | 1 | 3.7 | 2.4 | 19.1 | 19.6 | 18.5 | inhibition of OC43 infection (in words) ([2]; dose-response): inhibits; inhibition of SARS-CoV-2 infection (in words) [3]: inhibits
COC(=O)N[C@H](C(=O)N1CCC[C@H]1c1ncc(-c2ccc3c(c2)O[C@@H](c2ccccc2)n2c-3cc3cc(-c4cnc([C@@H]5CCCN5C(=O)[C@@H](NC(=O)OC)C(C)C)[nH]4)ccc32)[nH]1)C(C)C [Elbasvir] | 4.7 | 0 | 5.3 | 0 | 1 | 1 | 0.17 | > 10 | 20.1 | 18.8 | 21.4 | inhibition of SARS-CoV-2 infection (in words) [3]: did not inhibit SARS-CoV-2 infection
CS(=O)(=O)CCNCc1ccc(-c2ccc3ncnc(Nc4ccc(OCc5cccc(F)c5)c(Cl)c4)c3c2)o1 [Lapatinib] | 3.8 | – | 4.4 | – | – | – | 3.1 | – | – | – | – | 3CLpro activity: percentage of GFP-expressing cells (in words) [5]: statistically significant decrease; EC50 [3, 15]: 1.6 µM; OC43_mean [4, 7]: 9.7%; OC43_1: % staining of OC43 in screen repeat #1 [4, 8]: 5.2%; OC43_2: % staining of OC43 in screen repeat #2 [4, 9]: 14.1%
Bafetinib [Bafetinib (INNO-406)] | 5.0 | 0 | 3.6 | 0 | 1 | 1 | – | – | – | – | – | EC50 [2, 6]: 2.1 µM; 3CLpro activity: percentage of GFP-expressing cells (in words) [5]: statistically significant decrease; EC50 ([3]; read-out: EC50 SARS2): 2.2 µM; OC43_mean [4, 7]: 13.4%; OC43_1: % staining of OC43 in screen repeat #1 [4, 8]: 17.2%; OC43_2: % staining of OC43 in screen repeat #2 [4, 9]: 9.6%
CCCCOC(=O)c1ccc(O)cc1 [Butylparaben] | 3.3 | 0 | 3.6 | 0 | 1 | 1 | 1.7 | > 10 | 5.2 | 7 | 3.5 | –
O=C(O)CCC(=O)O.O=C(O[C@H]1CN2CCC1CC2)N1CCc2ccccc2[C@@H]1c1ccccc1 [Solifenacin succinate] | 5.0 | 0 | 5.0 | 0 | 1 | 1 | – | 3.6 | – | – | – | EC50 ([2]; Betacoronavirus 1, OC43, 48 h, read-out: EC50 OC43): 4.8 µM; activity at 10 µM ([4]; read-out: OC43_1: % staining of OC43 in screen repeat #1): 13%; activity at 10 µM ([4]; read-out: OC43_2: % staining of OC43 in screen repeat #2): 11.3%; activity at 10 µM ([4]; read-out: OC43_mean): 12.1%
CCN(CC)CCOCCOC(=O)C1(c2ccccc2)CCCC1.O=C(O)CC(O)(CC(=O)O)C(=O)O [Pentoxyverine Citrate] | 5.0 | 0 | 5.7 | 0 | 1 | 1 | 5.5 | 3.6 | 9.3 | 10.8 | 7.7 | –
O.O=C(c1ccc(OCCN2CCCCC2)cc1)c1c(-c2ccc(O)cc2)sc2cc(O)ccc12 [Raloxifene HCl] | 5.0 | 0 | 5.2 | 0 | 1 | 1 | 2.7 | 3.8 | 11.7 | 9.4 | 14 | –
CCN(CCCCOC(=O)c1ccc(OC)c(OC)c1)C(C)Cc1ccc(OC)cc1.O (stereo not drawn) [Mebeverine Hydrochloride] | 5.2 | 0 | 3.9 | 0 | 1 | 1 | 5 | 10 | 20 | 20.1 | 19.9 | –
CCCCOC(=O)c1ccc(N)cc1 [Butamben] | 3.9 | 0 | 4.7 | 0 | 1 | 1 | 3.1 | > 10 | 4.9 | 3.8 | 6.1 | –
C[C@@H]1[C@H](O)[C@@H](C)/C=C/C=C/C=C/C=C/C=C/C=C/C=C/[C@H](O[C@@H]2O[C@H](C)[C@@H](O)[C@H](N)[C@@H]2O)C[C@@H]2O[C@](O)(C[C@@H](O)C[C@@H](O)[C@H](O)CC[C@@H](O)C[C@@H](O)CC(=O)O[C@H]1C)C[C@H](O)[C@H]2C(=O)O [Amphotericin B] | 4.3 | 0 | 5.8 | 0 | 1 | 1 | – | – | – | – | – | EC50 [2, 6]: 0.04 µM; inhibition of SARS-CoV-2 infection (in words) [3]: did not inhibit SARS-CoV-2 infection; EC50 ([3]; read-out: EC50 SARS2): > 1 µM; OC43_mean [4, 7]: 6.6%; OC43_1: % staining of OC43 in screen repeat #1 [4, 8]: 1.5%; OC43_2: % staining of OC43 in screen repeat #2 [4, 9]: 11.8%
CNCCC=C1c2ccccc2CCc2ccccc21.O [Nortriptyline hydrochloride] | 4.2 | 0 | 3.1 | 0 | 1 | 1 | 7.5 | – | 19.6 | 25.2 | 14 | EC50 [3, 15]: 3.2 µM
